Assay results: US10463044B2, “Molecules that inhibit efflux pumps in multi-drug resistant bacteria and uses thereof” (priority 2014, dated 2019)
Converted amounts (≈) assume the structure as drawn. “And” between values parts separate entries of the source, which are not always exact repeats. Equal values may be shown once. Read-outs that look alike come from different tables or passages of the source.

Experiments:
B. subtilis = assay: Minimum inhibitory concentration (MIC), B. subtilis; assay type: cell-based, Bacillus subtilis; settings: compound alone
Method: Among the organisms studied are several strains of the bacterium E. coli. […] Experiments were conducted to determine the MIC values for the synthetic amphiphiles known as lariat ethers according to the procedures described in Antimicrobial M07-A9: Methods for Dilution Antimicrobial Susceptibility Tests for Bacteria that Grow Aerobically; Clinical and Laboratory Standards Institute, 2012; Vol. 32, 67 pp. MIC values so determined for several lariat ethers and for several antibiotics are shown in Table 1.

S. cerevisiae = assay: Minimum inhibitory concentration (MIC), S. cerevisiae; assay type: cell-based, Saccharomyces cerevisiae; settings: compound alone
E. coli = assay: Minimum inhibitory concentration (MIC), E. coli; assay type: cell-based, Escherichia coli; settings: compound alone
Source text: (§1) Among the organisms studied are several strains of the bacterium E. coli.
(§2) Minimal Inhibitory Concentration (MIC) Procedure. […] Streak the E. coli (DH5α or K-12 MG1655) strain on L.B agar plates. […] Prepare initial concentration of all the compounds required. • 5. […] Vortex each test tube for 2-3 seconds. • 9. […] Vortex each test tube for 2-3 seconds. • 11.

K-12 E. coli [1] = assay: MIC, K-12 E. coli; assay type: cell-based, Escherichia coli; settings: compound alone
Source text: as §2

[2] = system: tetracycline resistant E. coli (tetA efflux pump); assay type: cell-based, Escherichia coli
Method: (§3) However, the bacterial strains used herein are multidrug resistant and the effect of hydraphiles on the inhibition of resistance mechanism (efflux pumps) was not known. The hydraphiles and the controls were tested next to see whether they could recover the activity of antibiotics against efflux pump expressing Gram-positive and Gram-negative bacteria. The MIC of antibiotics were determined in the presence of ½ [MIC] or ¼ [MIC] of each hydraphile or the controls used.

K-12 E. coli [3] = assay: Combination of amphiphile and antibiotic against K-12 E. coli; assay type: cell-based, Escherichia coli; settings: Tetracycline; amphiphile used 16 μM
Method: Steps 1-7, described in the MIC procedure, shown in Example 2, were followed. • 2. While the E. coli grew, the appropriate volume of compound was added to each test tube. • 3. Antibiotics were added at the required volume of solution to obtain the desired concentration in each test tube. […] Each test tube was vortexed for 2-3 seconds. • 5. Steps 10-12 from the MIC procedure, shown in Example 2, were then executed.

[4] = system: K. pneumoniae (ATCC BAA 2146); assay: MIC, K. pneumoniae; assay type: cell-based, Klebsiella pneumoniae
Source text: (§4) K. pneumoniae (ATCC BAA 2146; another Gram-negative bacterium) that expresses multiple classes of efflux pumps and NDM-1 gene was also used. This K. pneumoniae is a clinically relevant strain that was isolated from a patient. Gram-positive S. aureus 1199B was used that overexpresses the NorA efflux pump. Since ethidium bromide and norfloxacin are the substrates of efflux pumps, S. aureus 1199B was used to evaluate the activity of efflux pumps in the presence of the hydraphiles and other membrane disruptors.
(§5) The minimal inhibitory concentrations (MIC) of all the compounds against three bacterial strains were first determined using the microtiter technique as described above. […] Antimicrobial property of hydraphiles is attributed to the disruption of ion homeostasis in bacteria.

[5] = system: K. pneumoniae (ATCC BAA 2146); assay: Recovery of antibiotic activity against K. pneumoniae by hydraphiles; assay type: cell-based, Klebsiella pneumoniae
Method: as §3

[6] = system: tetracycline resistant E. coli (tetA efflux pump); assay: microbe, parasite or virus in culture; assay type: cell-based, Escherichia coli; settings: compound alone; for MIC: tetracycline resistant E. coli
Source text: as §1
Minimal Inhibitory Concentration (MIC) Procedure. […] Streak the E. coli (DH5α or K-12 MG1655) strain on L.B agar plates. […] Prepare initial concentration of all the compounds required. • 5. […] Vortex each test tube for 2-3 seconds. • 9. […] Vortex each test tube for 2-3 seconds. • 11. […]
as §5

S. aureus 1199B = assay: MIC, S. aureus 1199B; assay type: cell-based, Staphylococcus aureus
Source text: as §4, §5

N,N′-di-n-tetradecyl-4,13-diaza-18-crown-6 [C14 lariat ether]
MIC (μM) B. subtilis (B. subtilis): >300 µM | MIC (μM) S. cerevisiae (S. cerevisiae): >300 µM | MIC (μM) E. coli (E. coli): >300 µM

N,N′-di-n-dodecyl-4,13-diaza-18-crown-6 [C12 lariat ether]
MIC (K-12 E. coli [1]): >512 µM | Antibiotic Used (μM) in combination ([2]; amphiphile used 192 μM): 450 µM | Fold Enhancement ([2]; amphiphile used 192 μM): 2 fold | MIC (μM) B. subtilis (B. subtilis): 2.5 µM | MIC (μM) S. cerevisiae (S. cerevisiae): 2.5 µM | MIC (μM) E. coli (E. coli): >300 µM | Antibiotic Used (μM) in combination (K-12 E. coli [3]): 3 µM | Fold Enhancement (K-12 E. coli [3]): 2 fold

Gramicidin D [reference compound]
[Tetracycline] μM in combination ([2]; amphiphile/control 20 μM): 900 ± 100 µM

CN(C)[C@@H]1C(O)=C(C(N)=O)C(=O)[C@@]2(O)C(O)=C3C(=O)c4c(O)cccc4[C@@](C)(O)[C@H]3C[C@@H]12 [tetracycline]
MIC ([4]; Klebsiella pneumoniae, BAA2146, read-out: Minimal Inhibitory Concentrations (MIC) K. pneumoniae): 1000 µM (≈ 444 µg/mL) | Minimal Inhibitory Concentrations (MIC) K. pneumoniae ([4]; compound alone, inhibition greater than 80% considered as the MIC): 1000 ± 100 µM | MIC (K-12 E. coli [1]; Escherichia coli): 6 µM (≈ 2.67 µg/mL) | recovery of tetracycline activity by hydraphiles [5]: 40 fold | MIC ([6]; Escherichia coli): ~900 µM (≈ 400 µg/mL) | Minimal Inhibitory Concentrations (MIC) E. coli (Tet^R) ([6]; microtiter, inhibition greater than 80% considered as the MIC): 900 µM and 900 ± 100 µM | MIC [6]: 900 ± 50 µM and 900 µM

c1ccc(CN2CCOCCOCCN(Cc3ccccc3)CCOCCOCC2)cc1 [Dibenzyl diaza crown, N,N′-Dibenzyl-4,13-diaza-18-crown-6, reference compound]
Fold Enhancement ([2]; amphiphile/control 128 μM): 1-fold | [Tetracycline] μM in combination ([2]; amphiphile/control 128 μM): 900 µM | Fold Enhancement ([2]; amphiphile/control 128 μM, listed as Dibenzyl di-aza-crown): did not show any recovery

CCn1cc(C(=O)O)c(=O)c2cc(F)c(N3CCNCC3)cc21 [norfloxacin]
susceptibility of S. aureus 1199B (S. aureus 1199B): resistant
